Common to all, as to assay: minimum inhibitory concentration (MIC)
Holding throughout (details): incubation time: 18 h

The subject of experiment [1] is Burkholderia cepacia ISS isolate s16.
Experiment [2] concerns Burkholderia cepacia ISS isolate s12.
Experiment [3] has as its system Burkholderia cepacia ISS isolate s31.
In experiment [4] the test system is Burkholderia cepacia ISS isolate s33.
For experiment [5], the system named is Burkholderia cepacia ISS isolate s37.
Experiment [6] deals with Burkholderia cepacia ISS isolate s35.
Experiment [7] concerns Burkholderia contaminans ISS isolate s52.
Experiment [8] concerns Burkholderia cepacia ISS isolate s28.
The subject of experiment [9] is Burkholderia cepacia ISS isolate s41.
Experiment [10] deals with Burkholderia cepacia ISS isolate s20.
Experiment [11] has as its system Burkholderia cepacia ISS isolate s18.
For experiment [12], the system named is Burkholderia cepacia ISS isolate s15.
For experiment [13], the system named is Burkholderia contaminans ISS isolate s47.
In experiment [14] the test system is Burkholderia cepacia ISS isolate s36.
For experiment [15], the system named is Burkholderia cepacia ISS isolate s24.
Experiment [16] has as its system Burkholderia contaminans ISS isolate s53.
Experiment [17] has as its system Burkholderia cepacia ISS isolate s25.
For experiment [18], the system named is Burkholderia contaminans ISS isolate s54.
The test system of experiment [19] is Burkholderia cepacia ISS isolate s57.
Experiment [20] concerns Burkholderia cepacia ATCC25416.
Experiment [21] concerns Burkholderia cepacia ISS isolate s9.
The test system of experiment [22] is Burkholderia contaminans ISS isolate s56.
The test system of experiment [23] is Burkholderia cepacia ISS isolate s39.
In experiment [24] the test system is Burkholderia contaminans J2956.
For experiment [25], the system named is Burkholderia cepacia ISS isolate s22.
Experiment [26] deals with Burkholderia cepacia ISS isolate s23.

≈ marks a conversion by molar mass, not a printed value. ± gives the standard deviation of the averaged measurements. A value given as a limit tells only on which side of the number the result lay.

Turning to `CO/N=C(\C(=O)N[C@@H]1C(=O)N2C(C(=O)O)=C(COC(C)=O)CS[C@H]12)c1csc(N)n1` [cefotaxime], the minimum inhibitory concentration in [1] was determined as 20.2 ± 9.2 µg/mL (≈ 44.3 µM); in experiment [2], 16 ± 12 µg/mL (≈ 35.1 µM); in [3], 25.4 ± 9.2 µg/mL (≈ 55.8 µM); in experiment [4], 20.2 ± 9.2 µg/mL (≈ 44.3 µM); in [5], 20.2 ± 9.2 µg/mL (≈ 44.3 µM); in [6] it was 16 ± 12 µg/mL (≈ 35.1 µM). The minimum inhibitory concentration was over 64 µg/mL in [7]; 20.2 ± 9.2 µg/mL (≈ 44.3 µM) in [8]; 12.7 ± 14 µg/mL (≈ 27.9 µM) in experiment [9]; 20.2 ± 9.2 µg/mL (≈ 44.3 µM) in experiment [10]; 20.2 ± 9.2 µg/mL (≈ 44.3 µM) in [11]; 16 µg/mL (≈ 35.1 µM) in experiment [12]. Further, the minimum inhibitory concentration was over 64 µg/mL in experiment [13]; 16 ± 12 µg/mL (≈ 35.1 µM) in [14]; 20.2 ± 9.2 µg/mL (≈ 44.3 µM) in experiment [15]; over 64 µg/mL in experiment [16]; 12.7 ± 14 µg/mL (≈ 27.9 µM) in experiment [17]; over 64 µg/mL in experiment [18]. Further, the minimum inhibitory concentration in [19] was 11.3 ± 5.7 µg/mL (≈ 24.8 µM); in [20] it was 20.2 ± 9.2 µg/mL (≈ 44.3 µM); in [21], 20.2 ± 9.2 µg/mL (≈ 44.3 µM); in experiment [22], over 64 µg/mL; in [23], 12.7 ± 14 µg/mL (≈ 27.9 µM); in [24], over 64 µg/mL. Moreover, the minimum inhibitory concentration in experiment [25] and in experiment [26] was 20.2 ± 9.2 µg/mL (≈ 44.3 µM) each time.
As to `O=C(N[C@H](CO)[C@H](O)c1ccc([N+](=O)[O-])cc1)C(Cl)Cl` [chloramphenicol], the minimum inhibitory concentration stood at 9.28 ± 2.6 µg/mL (≈ 28.7 µM) in [1]; 7.37 ± 4.2 µg/mL (≈ 22.8 µM) in [2]; 5.85 ± 4.9 µg/mL (≈ 18.1 µM) in experiment [3]; 5.04 ± 2.3 µg/mL (≈ 15.6 µM) in [4]; 5.04 ± 3.5 µg/mL (≈ 15.6 µM) in experiment [5]; 5.04 ± 2.3 µg/mL (≈ 15.6 µM) in [6]. For the same compound, the minimum inhibitory concentration in [7] is 8 µg/mL (≈ 24.8 µM); in experiment [8] it was 5.85 ± 4.9 µg/mL (≈ 18.1 µM); in experiment [9], 4 ± 3.1 µg/mL (≈ 12.4 µM); in experiment [10] it was 11.7 ± 9.8 µg/mL (≈ 36.2 µM); in [11], 9.28 ± 2.6 µg/mL (≈ 28.7 µM); in experiment [12], 5.04 ± 2.3 µg/mL (≈ 15.6 µM). The minimum inhibitory concentration in experiment [13] is 5.04 ± 2.3 µg/mL (≈ 15.6 µM); in experiment [14] it was 8 ± 16 µg/mL (≈ 24.8 µM); in [15], 9.28 ± 11 µg/mL (≈ 28.7 µM); in [16] it was 8 µg/mL (≈ 24.8 µM); in experiment [17], 5.85 ± 4.9 µg/mL (≈ 18.1 µM); in [18], 8 µg/mL (≈ 24.8 µM). The minimum inhibitory concentration was 8 µg/mL (≈ 24.8 µM) in experiment [19]; 6.35 ± 2.3 µg/mL (≈ 19.7 µM) in experiment [20]; 4.64 ± 5.6 µg/mL (≈ 14.4 µM) in [21]; 6.35 ± 2.3 µg/mL (≈ 19.7 µM) in [22]; 4 ± 3.1 µg/mL (≈ 12.4 µM) in [23]; 8 µg/mL (≈ 24.8 µM) in experiment [24]. For the same compound, the minimum inhibitory concentration in [25] turned out to be 7.37 ± 12 µg/mL (≈ 22.8 µM).
For `C[C@H]1COc2c(N3CCN(C)CC3)c(F)cc3c(=O)c(C(=O)O)cn1c23` [levofloxacin], the minimum inhibitory concentration in experiment [3] came to 8 ± 6.1 µg/mL (≈ 22.1 µM); in [4], 1 µg/mL (≈ 2.77 µM); in [5], 1.26 ± 0.58 µg/mL (≈ 3.49 µM); in [6] it was 1.59 ± 1.7 µg/mL (≈ 4.39 µM); in [7], 0.5 µg/mL (≈ 1.38 µM); in [8], 10.1 ± 15 µg/mL (≈ 27.9 µM). Moreover, the minimum inhibitory concentration in experiment [12] was determined as 1 µg/mL (≈ 2.77 µM); in [13], 0.5 µg/mL (≈ 1.38 µM); in experiment [14], 1.26 ± 0.87 µg/mL (≈ 3.49 µM); in experiment [15] it was 10.1 ± 15 µg/mL (≈ 27.9 µM); in experiment [16] it was 0.5 µg/mL (≈ 1.38 µM); in [17] it was 6.35 ± 2.3 µg/mL (≈ 17.6 µM). Also, the minimum inhibitory concentration in [18] was found to be 0.315 ± 0.14 µg/mL (≈ 0.872 µM); in [19], 0.63 ± 0.29 µg/mL (≈ 1.74 µM); in experiment [20], 0.63 ± 0.43 µg/mL (≈ 1.74 µM); in experiment [21], 6.35 ± 2.3 µg/mL (≈ 17.6 µM); in experiment [22], 0.5 µg/mL (≈ 1.38 µM); in experiment [24] it was 0.5 µg/mL (≈ 1.38 µM). Moreover, the minimum inhibitory concentration in experiment [25] and in experiment [26] was 8 ± 6.1 µg/mL (≈ 22.1 µM) in each case.
For `C[C@@H](O)[C@H]1C(=O)N2C(C(=O)O)=C(S[C@@H]3CN[C@H](C(=O)N(C)C)C3)[C@H](C)[C@H]12` [meropenem], the minimum inhibitory concentration was 10.1 ± 6.9 µg/mL (≈ 26.3 µM) in experiment [1]; 20.2 ± 9.2 µg/mL (≈ 52.6 µM) in [2]; 25.4 ± 9.2 µg/mL (≈ 66.2 µM) in experiment [3]; 32 µg/mL (≈ 83.4 µM) in experiment [5]; 32 µg/mL (≈ 83.4 µM) in [6]; 4 µg/mL (≈ 10.4 µM) in experiment [7]. Also, the minimum inhibitory concentration stood at 25.4 ± 9.2 µg/mL (≈ 66.2 µM) in experiment [8]; 12.7 ± 14 µg/mL (≈ 33.1 µM) in experiment [10]; 12.7 ± 14 µg/mL (≈ 33.1 µM) in experiment [11]; 4 µg/mL (≈ 10.4 µM) in [13]; 20.2 ± 14 µg/mL (≈ 52.6 µM) in experiment [15]; 4 µg/mL (≈ 10.4 µM) in experiment [16]. Also, the minimum inhibitory concentration in [17] was determined as 20.2 ± 9.2 µg/mL (≈ 52.6 µM); in experiment [18] it was 4 µg/mL (≈ 10.4 µM); in [19] it was 5.04 ± 2.3 µg/mL (≈ 13.1 µM); in experiment [20], 16 ± 12 µg/mL (≈ 41.7 µM); in [21], 32 µg/mL (≈ 83.4 µM); in [22] it was 5.04 ± 2.3 µg/mL (≈ 13.1 µM). Moreover, the minimum inhibitory concentration in experiment [24] was 4 µg/mL (≈ 10.4 µM); in experiment [25], 2 ± 1.5 µg/mL (≈ 5.22 µM); in [26], 20.2 ± 14 µg/mL (≈ 52.6 µM).
For `COc1cc(Cc2cnc(N)nc2N)cc(OC)c1OC.Cc1cc(NS(=O)(=O)c2ccc(N)cc2)no1` [trimethoprim/sulfamethoxazole], the minimum inhibitory concentration in [1] was determined as 20.2 ± 14 µg/mL; in experiment [2] it was 12.7 ± 4.6 µg/mL; in experiment [3] it was 20.2 ± 9.2 µg/mL; in experiment [4], 25.4 ± 9.2 µg/mL; in experiment [5] it was 32 µg/mL; in experiment [6], 32 µg/mL. The minimum inhibitory concentration in [7] came out at 6.35 ± 2.3 µg/mL; in experiment [8], 25.4 ± 9.2 µg/mL; in [9] it was 25.4 ± 9.2 µg/mL; in [10], 25.4 ± 9.2 µg/mL; in experiment [11] it was 12.7 ± 14 µg/mL; in experiment [12], 25.4 ± 9.2 µg/mL. The minimum inhibitory concentration is 8 µg/mL in experiment [13]; 32 µg/mL in experiment [14]; 8 µg/mL in experiment [16]; 22.6 ± 11 µg/mL in experiment [17]; 6.35 ± 2.3 µg/mL in [18]; 16 µg/mL in [19]. Further, the minimum inhibitory concentration in [20] worked out at 20.2 ± 9.2 µg/mL; in experiment [22], 10.1 ± 4.6 µg/mL; in experiment [23], 20.2 ± 9.2 µg/mL; in experiment [24] it was 8 µg/mL; in experiment [25] it was 20.2 ± 9.2 µg/mL; in experiment [26], 25.4 ± 9.2 µg/mL.

(Values after the supplement of paper PMC7029842.)
